Measured values taken from patent US20110009335A1, “Anticancer Treatments” (priority 2008, published 2011).

Key:
[1] = tested on: MRI-H-121 human renal tumor xenograft; assay: Aplidine with sunitinib, MRI-H-121 xenograft in athymic nude mice (Example 2); type: in vivo; details: doses and schedules tested
Experimental: (§1) Female athymic nude mice (Harlan Sprague Dawley, Madison, Wis.) were utilized for all experiments. Mice were implanted with tumor fragments or a cell suspension when mice were 5 weeks of age. Animals were housed in ventilated rack caging, 5 mice per cage, with food and water ad libitum. The mice were acclimated for 1 week prior to being implanted with tumor fragments or cell suspensions.
(§2) Tumor measurements were determined as disclosed in Example 1.
(§3) Body weights were recorded on treatment days and when tumor sizes were measured. In those days wherein the two drugs were administered the same day, the combination therapy groups were treated by co-administering the two drugs at the same time, with no attempt to sequence the treatments.
(§4) Aplidine was provided in the form of vials of lyophilized aplidine powder which was reconstituted in Cremophor EL/ethanol/water (CEW) 15/15/70 to a concentration of 0.5 mg/ml. The aplidine solution in CEW was diluted in 0.9% Saline to the dosing formulation concentrations, being the final proportion of CEW of 0.18/0.18/0.84. […]
(§5) Tumor size measurements were recorded twice weekly from the treatment initiation until the termination of the study.
(§6) Mean, standard deviation and standard error of the mean were determined for tumor volume for all animal groups at all assessments. […]

[2] = tested on: CAKI-1 human renal tumor xenograft; assay: Aplidine with sunitinib, CAKI-1 xenograft in athymic nude mice (Example 2); type: in vivo; details: doses and schedules tested
Experimental: as §1
Cells from in vitro passage 4-20 were implanted SC into study mice: 5×10^6 cells/mouse in 0.2 ml 50% Matrigel/50% medium without antibiotics or serum, using a 23 G needle and 1 cc syringe. Bacterial cultures were performed on aliquots of the cells prepared for implantation.
as §2
Body weights were recorded on treatment days and when tumor sizes were measured. In those days wherein the two drugs were administered the same day, the combination therapy groups were treated by co-administering the two drugs at the same time, with no attempt to sequence the treatments. […]
as §5, §6

[3] = mouse, in vivo
Experimental: Body weight effects were determined by comparing each mouse body weight measurement with the initial body weight (first day of treatment).
The NCI activity criterion of body weight loss >20% was used to gauge compound toxicity.
Body weight effects were determined by comparing each mouse body weight measurement with the initial body weight (first day of treatment). The NCI activity criterion of body weight loss >20% was used to gauge compound toxicity.

[4] = tested on: A498 human renal tumor xenograft; assay: Aplidine with sunitinib, A498 xenograft in athymic nude mice (Example 2); type: in vivo; details: doses tested; sunitinib 40 mg/kg
Experimental: as §1, §2, §3, §4, §5, §6

## CCN(CC)CCNC(=O)c1c(C)[nH]c(/C=C2\C(=O)Nc3ccc(F)cc32)c1C [sunitinib]
[1]
  antitumor activity as single agent (monotherapy): refractory
[2]
  antitumor activity as single agent (monotherapy): inactive
[3]
  effect on body weight / toxicity: did not cause a significant decline in mean body weight
[4]
  antitumor activity as single agent (monotherapy): did not reach the NCI criteria
